In one assay the test system is proso millet (PANMI). In words: Greenhouse pre-emergent efficacy, Example 3B. Type of assay: in vivo, Panicum miliaceum. The settings on record: both rates tested. An excerpt: (§1) ACC, DFF and MRB were used as the commercial products Warrant®, Brodal® and TriCor® DF as described in Example 3A above. Further, also a DFF+MRB pre-mix (200 g/L DFF+400 g/L MRB, suspension concentrate) was used. For GR (glyphosate resistant) palmer amaranth (AMAPA), at 1X rate, all 2- and 3-way treatments provided >95% control. Except for the DFF+MRB pre-mix, these treatments also provided >95% control of GR AMAPA at ½X rate as well. No single active ingredient provided acceptable control of GR AMAPA in this trial.

Assay [1] has as its system glyphosate resistant Canola (Roundup Ready® Canola). As to the kind of experiment: Greenhouse post-emergent efficacy in glyphosate resistant Canola, Example 3C. The assay is classed as in vivo. As to conditions: text statement on Table 3C. Here is the method: ACC and DFF were used as the commercial products Warrant® and Brodal® as described in Example 3A above. The seeds of glyphosate resistant Canola (Roundup Ready® Canola) were planted in 3.5-inches (8.89 cm) square plastic pots filled with a potting media of 75% silt loam and 25% Redi-earth (Sun Gro, Bellevue, WA). The temperature conditions were 22° C. day and 17° C. night with 14 hours of supplemental light (approximately 600 microeinsteins). The pots are placed in a controlled-environment greenhouse equipped with sub-irrigation. The treatments applications were applied to the plants with a track sprayer generally using a TTI110015 nozzle spray nozzle. The spray nozzle was 16 inches (40.64 cm) above the top of the plants and a spray volume rate of about 140 L/ha was applied. The plants were sprayed when canola was at the V3-V4 growth stage. Visual ratings (% control) were collected at 14 DAT.

In assay [2] the test system is GR (glyphosate resistant) palmer amaranth (AMAPA). In words: Greenhouse pre-emergent efficacy, Example 3B. Type of assay: in vivo, Amaranthus palmeri.
From the text: as §1

`CCOCN(C(=O)CCl)c1c(C)cccc1CC` [ACC, 2-chloro-N-(ethoxymethyl)-N-(2-ethyl-6-methylphenyl)acetamide]: in the assay on proso millet (PANMI), the “control of proso millet (PANMI), in words” value is reported as “weak control”. The “herbicidal activity on glyphosate resistant Canola, in words” value in assay [1] is listed as “very low herbicidal activity”. The “control of GR AMAPA, in words” value in assay [2] was “weak control”.

Consider `O=C(Nc1ccc(F)cc1F)c1cccnc1Oc1cccc(C(F)(F)F)c1` [DFF, N-(2,4-difluorophenyl)-2-[3-(trifluoromethyl)phenoxy]-3-pyridinecarboxamide], for which the “control of proso millet (PANMI), in words” value in the assay on proso millet (PANMI) is recorded as “weak control”. In addition, the “control of GR AMAPA, in words” value in assay [2] was “weak control”.

The values are drawn from patent US20240008480A1, “MICROCAPSULE WITH ACETAMIDES AND DIFLUFENICAN” (MONSANTO TECHNOLOGY LLC, priority 2020, published 2024).
